Measured values reported in the supplement of paper PMC10331698.
± gives the standard deviation of the averaged measurements.

Columns and labels:
Test in all cases: level (log10 ratio to DMSO vehicle control); higher = higher biomarker level / cell amount than vehicle control
[1] = compound: C=C(C)C(=O)OCCC(F)(F)C(F)(F)C(F)(F)C(F)(F)C(F)(F)C(F)(F)F [6:2 Fluorotelomer methacrylate]; conditions: in DMSO
Protocol: (§1)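 BioMAP Diversity Plus panel of 12 human primary cell co-culture systems (3C, 4H, LPS, SAg, BT, BF4T, BE3C, CASM3C, HDF3CGF, KF3CT, MyoF, Mphg). Compounds were added 1 h before stimulation and left for 24 h (MyoF 48 h; BT 72 h for soluble read-outs or 6 d for IgG). Biomarkers were read by ELISA, cytotoxicity by SRB, PBMC viability and proliferation by Alamar Blue. Each well value was divided by the mean of 8 DMSO control wells on the same plate and log10 transformed; duplicate blinded samples were tested at 4 concentrations.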

[2] = compound: C=CC(=O)OCC(F)(F)C(F)(F)C(F)(F)COC(=O)C=C [1H,1H,5H,5H-Perfluoro-1,5-pentanediol diacrylate]; conditions: 6700 nM; in DMSO
Protocol: as §1

[3] = compound: COC(=O)C(F)(F)C(F)(F)OC(F)(C(F)(F)F)C(F)(F)OC(F)=C(F)F [Methyl perfluoro(3-(1-ethenyloxypropan-2-yloxy)propanoate)]; conditions: in DMSO
Protocol: as §1

[4] = compound: FC(F)(F)C(F)(F)C(F)(F)CC1CO1 [1H,1H-Heptafluorobutyl epoxide]; conditions: in DMSO
Protocol: as §1

[5] = compound: NC(=O)C(F)(F)C(F)(F)C(F)(F)C(F)F; conditions: in DMSO
Protocol: as §1

[6] = compound: NS(=O)(=O)C(F)(F)C(F)(F)C(F)(F)C(F)(F)C(F)(F)C(F)(F)F [Perfluorohexanesulfonamide]; conditions: in DMSO
Protocol: as §1

Test System | level (log10) ([1]; 6700 nM) | level (log10) ([1]; 20000 nM) | level (log10) ([1]; 60000 nM) | level (log10) [2] | level (log10) ([3]; 6700 nM) | level (log10) ([3]; 20000 nM) | level (log10) ([4]; 6700 nM) | level (log10) ([4]; 20000 nM) | level (log10) ([4]; 60000 nM) | level (log10) ([5]; 6700 nM) | level (log10) ([5]; 20000 nM) | level (log10) ([5]; 60000 nM) | level (log10) ([6]; 6700 nM) | level (log10) ([6]; 20000 nM) | level (log10) ([6]; 60000 nM)
HDF3CGF:CXCL10/IP-10 | -0.0075 ± 0.016 | -0.019 ± 0.021 | -0.0225 ± 0.026 | -0.821 ± 0.0057 | -0.018 ± 0.062 | -0.203 ± 0.03 | -0.0275 ± 0.0078 | -0.0285 ± 0.053 | -0.054 ± 0.054 | -0.001 ± 0.0014 | -0.0065 ± 0.0021 | 0.002 ± 0.011 | -0.02 ± 0.037 | -0.059 ± 0.037 | -0.185 ± 0.069
3C:SRB | -0.004 ± 0.014 | -0.0025 ± 0.0078 | 0 ± 0.018 | -0.0305 ± 0.011 | 0.006 ± 0.0071 | 0.004 ± 0.0042 | 0.002 ± 0.035 | 0.0005 ± 0.018 | -0.0185 ± 0.0064 | -0.0075 ± 0.019 | -0.013 ± 0.0014 | -0.019 ± 0.023 | -0.01 ± 0.011 | -0.0125 ± 0.0078 | -0.139 ± 0.014
CASM3C:Proliferation | -0.0395 ± 0.046 | -0.042 ± 0.031 | 0.0115 ± 0.0092 | -0.289 ± 0.086 | -0.012 ± 0.065 | 0.036 ± 0.05 | -0.0175 ± 0.021 | -0.046 ± 0.05 | -0.026 ± 0.064 | 0.002 ± 0.071 | -0.0145 ± 0.023 | 0.014 ± 0.025 | 0.0015 ± 0.013 | 0.0285 ± 0.03 | 0.0255 ± 0.018
HDF3CGF:PAI-I | -0.0695 ± 0.083 | -0.057 ± 0.064 | -0.0415 ± 0.057 | -0.85 ± 0.033 | 0.107 ± 0.0099 | 0.0875 ± 0.00071 | -0.0135 ± 0.0035 | -0.0175 ± 0.0064 | 0.009 ± 0.025 | -0.012 ± 0.011 | -0.016 ± 0.0099 | 0 ± 0.038 | -0.0075 ± 0.083 | 0.081 ± 0.0071 | -0.0365 ± 0.037
4H:CD106/VCAM-1 | -0.002 ± 0.021 | -0.013 ± 0.0099 | -0.0045 ± 0.015 | -0.032 ± 0.045 | -0.01 ± 0.0028 | -0.0385 ± 0.0035 | -0.0035 ± 0.033 | 0.0125 ± 0.073 | 0.007 ± 0.078 | -0.0145 ± 0.005 | -0.021 ± 0.0085 | -0.007 ± 0.0057 | -0.0245 ± 0.011 | -0.0165 ± 0.015 | -0.08 ± 0.034
3C:CD62E/E-Selectin | -0.0145 ± 0.015 | -0.01 ± 0.033 | -0.0135 ± 0.035 | -0.135 ± 0.049 | -0.034 ± 0.011 | -0.031 ± 0.013 | -0.011 ± 0.023 | 0.002 ± 0.013 | 0.0075 ± 0.0035 | -0.0055 ± 0.022 | -0.027 ± 0.0014 | -0.016 ± 0.018 | -0.0065 ± 0.016 | -0.034 ± 0.0014 | -0.0595 ± 0.013
BE3C:tPA | -0.0525 ± 0.036 | -0.053 ± 0.018 | -0.056 ± 0.013 | -0.0565 ± 0.033 | -0.114 ± 0.033 | -0.142 ± 0.018 | -0.0115 ± 0.06 | -0.0245 ± 0.03 | -0.0375 ± 0.026 | -0.008 ± 0.0028 | -0.0275 ± 0.016 | -0.0235 ± 0.0021 | -0.0075 ± 0.035 | 0.0005 ± 0.016 | -0.245 ± 0.059
3C:CCL2/MCP-1 | 0.01 ± 0.051 | -0.0025 ± 0.016 | 0.022 ± 0.028 | -0.026 ± 0.0042 | 0.0045 ± 0.0064 | 0.0175 ± 0.032 | 0.0005 ± 0.0064 | -0.011 ± 0.0071 | -0.0025 ± 0.023 | -0.01 ± 0.013 | -0.0135 ± 0.011 | 0.015 ± 0.042 | 0.0075 ± 0.0021 | 0.001 ± 0.014 | -0.0255 ± 0.032
CASM3C:CXCL8/IL-8 | 0.0185 ± 0.018 | 0.0165 ± 0.012 | 0.0205 ± 0.00071 | -0.0125 ± 0.00071 | -0.004 ± 0.0085 | 0.013 ± 0.0085 | 0 ± 0.017 | 0.0005 ± 0.0078 | -0.0035 ± 0.00071 | -0.006 | -0.006 | 0.004 ± 0.031 | -0.0235 ± 0.0035 | -0.014 ± 0.014 | 0.001 ± 0.0085
3C:CXCL8/IL-8 | 0.018 ± 0.021 | 0.024 ± 0.016 | 0.0505 ± 0.018 | -0.0045 ± 0.018 | 0.0075 ± 0.046 | 0.0485 ± 0.061 | -0.0225 ± 0.019 | -0.019 ± 0.0057 | 0 ± 0.018 | 0.0025 ± 0.016 | -0.007 ± 0.0042 | 0.012 ± 0.0099 | 0.011 ± 0.023 | 0.0415 ± 0.0092 | 0.024 ± 0.013
KF3CT:uPA | -0.016 ± 0.013 | -0.011 ± 0.023 | -0.0015 ± 0.0078 | -0.0035 ± 0.013 | 0.014 ± 0.021 | 0.0325 ± 0.019 | -0.0085 ± 0.047 | 0.017 ± 0.067 | -0.019 ± 0.033 | 0.008 ± 0.025 | -0.0125 ± 0.028 | -0.008 ± 0.021 | -0.006 ± 0.023 | -0.0215 ± 0.019 | 0.0025 ± 0.022
KF3CT:SRB | -0.005 ± 0.0085 | 0 | -0.001 ± 0.0057 | -0.01 ± 0.0085 | 0.005 ± 0.013 | 0.0125 ± 0.0078 | -0.001 ± 0.0085 | 0.001 ± 0.0028 | -0.001 ± 0.0057 | -0.006 ± 0.0028 | -0.0005 ± 0.0064 | -0.002 ± 0.013 | 0 ± 0.0099 | -0.008 ± 0.0028 | -0.014 ± 0.0042
lMphg:CD62E/E-Selectin | -0.0005 ± 0.015 | -0.003 ± 0.048 | -0.0135 ± 0.011 | -0.0595 ± 0.00071 | 0.011 ± 0.052 | 0.018 ± 0.027 | -0.001 ± 0.059 | -0.005 ± 0.035 | 0.0525 ± 0.025 | -0.011 ± 0.038 | -0.021 ± 0.076 | -0.037 ± 0.078 | -0.02 ± 0.031 | -0.061 ± 0.0014 | -0.191 ± 0.013
MyoF:Collagen IV | -0.075 ± 0.11 | -0.0395 ± 0.076 | -0.02 ± 0.1 | 0.03 ± 0.047 | -0.0215 ± 0.04 | -0.0235 ± 0.028 | -0.0125 ± 0.015 | 0 ± 0.0099 | 0.001 ± 0.035 | -0.0075 ± 0.0035 | -0.007 ± 0.028 | 0.014 ± 0.038 | 0.0555 ± 0.023 | 0.202 ± 0.025 | 0.408 ± 0.016
HDF3CGF:MMP-1 | 0.023 ± 0.0085 | 0.031 ± 0.0028 | 0.039 ± 0.0057 | -0.3945 ± 0.00071 | 0.0115 ± 0.011 | 0.02 ± 0.033 | 0.0265 ± 0.012 | 0.028 ± 0.0099 | 0.0355 ± 0.0035 | 0.0005 ± 0.00071 | -0.006 ± 0.0042 | 0.003 ± 0.0071 | 0.0145 ± 0.0064 | 0.0155 ± 0.0035 | -0.0185 ± 0.028
lMphg:M-CSF | 0.0215 ± 0.0064 | -0.016 ± 0.0071 | -0.0125 ± 0.025 | -0.0245 ± 0.0035 | -0.0325 ± 0.042 | -0.0335 ± 0.035 | 0.0065 ± 0.013 | -0.003 ± 0.011 | 0.003 ± 0.04 | -0.0135 ± 0.0092 | -0.018 ± 0.025 | -0.0175 ± 0.015 | -0.051 ± 0.072 | -0.113 ± 0.037 | -0.119 ± 0.051
lMphg:CD40 | -0.0125 ± 0.016 | 0.0065 ± 0.023 | 0.0235 ± 0.005 | -0.0585 ± 0.015 | -0.0295 ± 0.0064 | -0.0365 ± 0.028 | -0.005 ± 0.025 | -0.001 ± 0.016 | 0.0045 ± 0.0021 | -0.026 ± 0.027 | -0.011 ± 0.0071 | -0.017 ± 0.0042 | -0.02 ± 0.021 | -0.043 ± 0.031 | -0.146 ± 0.021
